This is an account of results in patent US10633389B2, “CARM1 inhibitors and uses thereof” (Epizyme, Inc., priority 2013, dated 2020).

For the assay, the system named is asymmetric di-methyl PABP1 in RKO cells. As to the kind of experiment: RKO methylation assay, In Cell Western (ICW) for asymmetric di-methyl PABP1. It is filed as cell-based. The conditions noted are these: Homo sapiens, RKO, Cellular potencies, ICW PABP1me2a. Put shortly: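 In-cell Western on fixed RKO cells after 48 h compound exposure: anti-asymmetric di-methyl PABP1 signal at 800 nm over DRAQ5 DNA signal at 700 nm. Percent inhibition set between DMSO wells and wells with 20 μM reference compound; IC50 curves fitted in triplicate.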

Broadly, the IC50 is the concentration that inhibits the measured activity by half. A lower IC50 goes with inhibition by little substance.

In the case of `CNCC(O)COc1cccc(-c2nc(N[C@@H]3CCOC[C@@H]3OC)c(C)c(-c3c(C)noc3C)n2)c1` (some centres unmarked) [Example 220-1a], the concentration for half-maximal inhibition (IC50) is less than 5 µM.

`CNC[C@@H](O)COc1cccc(-c2nc(-c3c[nH]c4ncncc34)c(C)c(N(C)C3CCOCC3)n2)c1` [Example 526-1a] came in with an IC50 of 5 to 10 µM.

In turn, `CCS(=O)(=O)N1CCC(Nc2nc(-c3cccc(OCC(O)CNC)c3)nc(-c3c(C)noc3C)c2C)CC1` (centres unmarked) [Example 168-1a] showed an IC50 of less than 5 µM.

Turning to `CNC[C@@H](O)COc1ccc(Cl)c(-c2nc(-c3c(C)noc3C)c(C)c(N3CC4(CCOCC4)C3)n2)c1` [Example 118-3], the IC50 is less than 5 µM.

Consider `CNCC(O)COc1cccc(-c2nc(-c3cnc(CO)n3C)cc(N(C)C3CCOCC3)n2)c1` (centres unmarked) [Example 572-1a], for which the IC50 lay in the range of 10 to 20 µM.

As for `CNCC(O)COc1cccc(-c2nc(N[C@@H]3CCOC3)c(C)c(N3CCN(CC(F)F)CC3)n2)c1` (some centres unmarked) [Example 458-1a], the IC50 was less than 5 µM.

Turning to `CNCC(O)COc1cc(Cl)cc(-c2nc(C(=O)NCC3CCOCC3)cc(N(C)C3CCOCC3)n2)c1` (centres unmarked) [Example 508-1a], the IC50 is less than 5 µM.

As to `CNC[C@@H](O)COc1ccc(Cl)c(-c2nc(N[C@H]3CN(C(=O)OC)C[C@@H]3F)c(C)c(-c3c(C)noc3C)n2)c1` [Example 202-3], the IC50 was less than 5 µM.

Regarding `CCS(=O)(=O)N1CCCC(Nc2nc(-c3cccc(OCC(O)CNC)c3)nc(-c3c(C)noc3C)c2C)C1` (centres unmarked) [Example 204-1a], the IC50 is less than 5 µM.

`CNCC(O)COc1cccc(-c2nc(NC3CC(F)C3)c(C)c(-c3c(C)noc3C)n2)c1` (centres unmarked) [Example 3-3] had an IC50 of less than 5 µM.

`CNCC(O)COc1cccc(-c2nc(-c3c(C)noc3C)cc(-c3cnc4cnccn34)n2)c1` (centres unmarked) [Example 112-1a] gave an IC50 of 10 to 20 µM.

For the compound `CNCC(O)COc1cccc(-c2nc(-c3c(C)noc3C)cc(N3CCN(C(C)=O)[C@@H](C)C3)n2)c1` (some centres unmarked) [Example 38-1a], the half-inhibitory concentration (IC50) was in the range of 5 to 10 µM.

Regarding `CNCC(O)COc1cccc(-c2nc(NC3(CO)CC3)c(C)c(-c3c(C)noc3C)n2)c1` (centres unmarked) [Example 5-3], the IC50 was 5 to 10 µM.

`CNCC(O)COc1cccc(-c2nc(N[C@H]3C[C@@](C)(O)C3)c(C)c(-c3c(C)noc3C)n2)c1` (some centres unmarked) [Example 255-1a] yielded an IC50 of less than 5 µM.

For the compound `CNCC(O)COc1cccc(-c2nc(-c3c(C)noc3C)cc(N3CCC4(CC3)NC(=O)NC4=O)n2)c1` (centres unmarked) [Example 42-1a], the IC50 fell in the range of 10 to 20 µM.

As for `CNCC(O)COc1cccc(-c2nc(N[C@@H]3CCOC3)c(C)c(-c3cn[nH]c3)n2)c1` (some centres unmarked) [Example 338-1a], the IC50 lay within 10 to 20 µM.

The compound `CNCC(O)COc1cccc(-c2nc(N[C@@H]3CCOC3)c(C)c(N3CCS(=O)(=O)CC3)n2)c1` (some centres unmarked) [Example 425-1a] showed an IC50 of 10 to 20 µM.

With `CNCC(O)COc1cccc(-c2nc(NC3CCOCC3)cc(-c3c(C)noc3C)n2)c1` (centres unmarked) [Example 33-1], the IC50 is less than 5 µM.

The compound `CNC[C@@H](O)COc1ccc(Cl)c(-c2nc(-c3c(C)noc3C)c(C)c(N3CCC3C)n2)c1` (some centres unmarked) [Example 207-3] showed an IC50 of less than 5 µM.

`CNCC(O)COc1cccc(-c2nc(-c3c(C)noc3C)c(C)c(N3CC(CO)(CNC(=O)N(C)C)C3)n2)c1` (centres unmarked) [Example 298-1a] registered an IC50 of 10 to 20 µM.

Regarding `CNCC(O)COc1cccc(-c2nc(NC3(C)CCOCC3)cc(-c3c(C)noc3C)n2)c1` (centres unmarked) [Example 85-1a], the IC50 is less than 5 µM.

As to `CNCC(O)COc1cccc(-c2nc(-c3cnn(CC(C)C)c3)cc(N(C)C3CCOCC3)n2)c1` (centres unmarked) [Example 516-1a], the IC50 lay in the range of 5 to 10 µM.

`CNCC(O)COc1cccc(-c2nc(NC3CCOC(C)(C)C3)c(C)c(-c3c(C)noc3C)n2)c1` (centres unmarked) [Example 290-1a] gave an IC50 of less than 5 µM.

Consider `CNCC(O)COc1ccc(Cl)c(-c2nc(NC3(C)CCOCC3)c(Cl)c(-c3c(C)noc3C)n2)c1` (centres unmarked) [Example 137-1a], for which the IC50 was less than 5 µM.

`CNCC(O)COc1cccc(-c2nc(N[C@H]3C[C@H]4CC[C@@H](C3)N4C(=O)OC)c(C)c(-c3c(C)noc3C)n2)c1` (some centres unmarked) [Example 266-1a]: the IC50 was less than 5 µM.

The compound `CNCC(O)COc1cccc(-c2nc(NCC3CCN(C(=O)N(C)C)CC3)c(C)c(-c3c(C)noc3C)n2)c1` (centres unmarked) [Example 248-1a] came in with an IC50 of less than 5 µM.

The compound `CCOC(=O)N1CC(Nc2nc(-c3cccc(OCC(O)CNC)c3)nc(-c3c(C)noc3C)c2C)C1` (centres unmarked) [Example 238-1a] gave an IC50 of 10 to 20 µM.

On to `CNCC(O)COc1cccc(-c2nc(NC[C@@H]3CN(C(=O)OC)CCO3)c(C)c(-c3c(C)noc3C)n2)c1` (some centres unmarked) [Example 306-1a], for which the IC50 is less than 5 µM.

Take `CNCC(O)COc1cccc(-c2nc(-c3c(C)noc3C)c(C)c(N3CCN(C(=O)C4CCOCC4)CC3)n2)c1` (centres unmarked) [Example 108-1a]: the IC50 is less than 5 µM.

`CNC[C@@H](O)COc1ccc(Cl)c(-c2nc(N[C@H]3C[C@@H](OC)C3)c(Cl)c(-c3c(C)noc3C)n2)c1` [Example 216-3] registered an IC50 of less than 5 µM.

Compound `CNCC(O)COc1cccc(-c2nc(NC3CCCN(S(C)(=O)=O)C3)c(C)c(-c3c(C)noc3C)n2)c1` (centres unmarked) [Example 198-1a] came in with an IC50 of less than 5 µM.

In turn, `CNCC(O)COc1cccc(-c2nc(N[C@@H]3CCN(C(=O)OC)C[C@H]3F)c(C)c(-c3c(C)noc3C)n2)c1` (some centres unmarked) [Example 228-1a] came in with an IC50 of less than 5 µM.

`CNCC(O)COc1cccc(-c2nc(N[C@@H]3CCN(C(=O)OC)C[C@@H]3F)c(C)c(-c3c(C)noc3C)n2)c1` (some centres unmarked) [Example 225-1a] returned an IC50 of less than 5 µM.

Consider `CNC[C@@H](O)COc1ccc(Cl)c(-c2nc(-c3c(C)noc3C)c(C)c(N3Cc4cnc(C(F)(F)F)nc4C3)n2)c1` [Example 263-3], for which the IC50 is less than 5 µM.

As for `CNC[C@@H](O)COc1ccc(Cl)c(-c2nc(-c3c(C)noc3C)c(C)c(N3Cc4cncnc4C3)n2)c1` [Example 190-3], the 50% inhibitory concentration (IC50) was less than 5 µM.

Compound `CNCC(O)COc1cccc(-c2nc(NCC3CCOCC3)c(Cl)c(-c3c(C)noc3C)n2)c1` (centres unmarked) [Example 142-1a] gave an IC50 of less than 5 µM.

With `CNCC(O)COc1cccc(-c2nc(N[C@@H]3CCOC3)c(C)c(N3CC[C@@H](OC)C3)n2)c1` (some centres unmarked) [Example 369-1a], the IC50 was in the range of 10 to 20 µM.

In turn, `CNCC(O)COc1cccc(-c2nc(NC3CNC3)c(C)c(-c3c(C)noc3C)n2)c1` (centres unmarked) [Example 1-3] displayed a half-maximal inhibitory concentration (IC50) not below 20 µM.

`CNCC(O)COc1cccc(-c2nc(-c3c(C)noc3C)cc(N(C)CC3CCOCC3)n2)c1` (centres unmarked) [Example 87-1a] showed an IC50 of less than 5 µM.

As for `CNC[C@H](O)COc1cccc(-c2nc(NC3CCN(C(=O)OC)C(C)C3)c(C)c(-c3c(C)noc3C)n2)c1` (some centres unmarked) [Example 33-3], the IC50 is less than 5 µM.

On to `CNC[C@@H](O)COc1cccc(-c2nc(NCC3CCOCC3)c(C)c(-c3c(C)noc3C)n2)c1` [Example 183-1a], for which the IC50 is less than 5 µM.

Turning to `CNCC(O)COc1cccc(-c2nc(N[C@H]3CCOC3=O)c(C)c(-c3c(C)noc3C)n2)c1` (some centres unmarked) [Example 281-1a], the IC50 was in the range of 10 to 20 µM.

In turn, `CNCC(O)COc1cccc(-c2nc(-c3cncn3C)cc(N(C)C3CCOCC3)n2)c1` (centres unmarked) [Example 580-1a] showed an IC50 of 10 to 20 µM.

The compound `CNC[C@@H](O)COc1ccc(Cl)c(-c2nc(-c3c(C)noc3C)c(C)c(N3CCC4(CCN(C5CC5)C4)C3)n2)c1` (some centres unmarked) [Example 138-3] showed an IC50 of less than 5 µM.

`CNCC(O)COc1cccc(-c2nc(N[C@@H]3CCOC3)c(C)c(-c3ccc(OC)nc3)n2)c1` (some centres unmarked) [Example 408-1a]: the IC50 lay in the range of 5 to 10 µM.

`CNCC(O)COc1cc(Cl)cc(-c2nc(N[C@H]3CCOC3)cc(-c3c(C)noc3C)n2)c1` (some centres unmarked) [Example 12-1a] registered an IC50 of 10 to 20 µM.

In turn, `CNC[C@@H](O)COc1ccc(Cl)c(-c2nc(-c3c(C)noc3C)c(C)c(N3CC(F)(F)C3)n2)c1` [Example 184-3] registered an IC50 of less than 5 µM.

The compound `CCS(=O)(=O)N1CCN(c2nc(-c3cccc(OCC(O)CNC)c3)nc(N[C@@H]3CCOC3)c2C)CC1` (some centres unmarked) [Example 464-1a] had a 50% inhibitory concentration (IC50) of less than 5 µM.

Consider `CCOC(=O)N1CCOC[C@@H]1CNc1nc(-c2cc(OC[C@H](O)CNC)ccc2F)nc(-c2c(C)noc2C)c1C` [Example 62-3], for which the IC50 is less than 5 µM.

`CNCC(O)COc1cccc(-c2nc(OCC3CCN(CC(F)F)CC3)c(C)c(-c3c(C)noc3C)n2)c1` (centres unmarked) [Example 288-1a] registered an IC50 of less than 5 µM.

Compound `CNCC(O)COc1cccc(-c2nc(N[C@@H]3CCOC3)c(C)c(N3Cc4nc(C)sc4C3)n2)c1` (some centres unmarked) [Example 465-1a] gave an IC50 of less than 5 µM.

As for `CNCC(O)COc1cccc(-c2nc(-c3c(C)noc3C)cc(N3CCN(CCF)CC3)n2)c1` (centres unmarked) [Example 68-1a], the IC50 lay within 5 to 10 µM.

In turn, `CNCC(O)COc1cccc(-c2nc(NCCCCl)c(C)c(N[C@@H]3CCOC3)n2)c1` (some centres unmarked) [Example 366-1a] returned an IC50 of 10 to 20 µM.

The compound `CCOC(=O)N1CCC(Nc2nc(-c3cccc(OCC(O)CNC)c3)nc(-c3c(C)noc3C)c2C)C1` (centres unmarked) [Example 196-1a] showed a half-maximal inhibitory concentration (IC50) of less than 5 µM.

For the compound `CNCC(O)COc1cccc(-c2nc(N[C@@H]3CCOC3)c(C)c(N3Cc4ccncc4C3)n2)c1` (some centres unmarked) [Example 427-1a], the IC50 is less than 5 µM.

`CCOC(=O)N1CCC[C@@H]1CNc1nc(-c2cc(OC[C@@H](O)CNC)ccc2Cl)nc(-c2c(C)noc2C)c1C` [Example 49-3] had an IC50 of less than 5 µM.

As to `CNC[C@@H](O)COc1ccc(Cl)c(-c2nc(-c3c(C)noc3C)c(C)c(N3CCOC3=O)n2)c1` [Example 187-3], the IC50 was in the range of 10 to 20 µM.

For `CNC[C@@H](O)COc1ccc(Cl)c(-c2nc(N[C@H]3CC[C@@H](OC)C3)c(C)c(-c3c(C)noc3C)n2)c1` [Example 212-3], the IC50 is less than 5 µM.

In turn, `CNC[C@@H](O)COc1ccc(Cl)c(-c2nc(N[C@@H]3CO[C@@H](C)C3)c(C)c(-c3c(C)noc3C)n2)c1` [Example 162-3] displayed an IC50 of less than 5 µM.

Turning to `CNCC(O)COc1cccc(-c2nc(-c3c(C)noc3C)cc(N3CCN(S(C)(=O)=O)[C@@H](C)C3)n2)c1` (some centres unmarked) [Example 92-1a], the IC50 was less than 5 µM.

Take `CCc1onc(C)c1-c1nc(-c2cccc(OCC(O)CNC)c2)nc(NC2CCOCC2)c1C` (centres unmarked) [Example 276-1a]: the IC50 is less than 5 µM.

Turning to `CNC[C@@H](O)COc1ccc(F)c(-c2nc(-c3c(C)noc3C)cc(N3Cc4nccnc4C3)n2)c1` [Example 274-3], the IC50 is less than 5 µM.
